Columns and labels:
Assay type in all cases: functional
Mus musculus [1] = test: Reduction of serum cholesterol in CF1 male mice on day 9 following 20 mg/kg/day i.p. administration.; conditions: route intraperitoneal
Mus musculus [2] = test: Reduction of serum triglycerides in CF1 male mice on day 16 following 20 mg/kg/day i.p. administration.; conditions: route intraperitoneal
Mus musculus [3] = test: Reduction of serum cholesterol in CF1 male mice on day 16 following 20 mg/kg/day i.p. administration.; conditions: route intraperitoneal
Mus musculus [4] = test: Hypolipidemic effects in CF1 male mice at a dose 150 mg/(kg day), ip, percent control of serum cholesterol was determined on day 16
Mus musculus [5] = test: Hypolipidemic effects in CF1 male mice at a dose 150 mg/(kg day), ip, percent control of serum triglyceride was determined on day 16
Mus musculus [6] = test: Hypolipidemic effects in CF1 male mice at a dose 150 mg/(kg day), ip,percent control of serum cholesterol was determined on day 9

| Compound | Serum cholesterol, percent of control (Mus musculus [1]) [%] | Serum triglycerides, % of control (Mus musculus [2]) [%] | Serum cholesterol, percent of control (Mus musculus [3]) [%] | Control (Mus musculus [4]) [%] | Control (Mus musculus [5]) [%] | Control (Mus musculus [6]) [%] |
| --- | --- | --- | --- | --- | --- | --- |
| O=c1c2ccccc2[nH]n1Cc1ccccc1 | 83 | 58 | 72 |  |  |  |
| Oc1n[nH]c2ccccc12 | 96 | 75 | 80 |  |  |  |
| Cn1[nH]c2ccccc2c1=O | 92 | 72 | 69 |  |  |  |
| CCCCn1[nH]c2ccc(C)cc2c1=O | 95 | 81 | 97 |  |  |  |
| CCn1[nH]c2ccccc2c1=O | 98 | 71 | 71 |  |  |  |
| CC(=O)c1ccc(Cn2[nH]c3ccccc3c2=O)cc1 | 76 | 50 | 75 |  |  |  |
| CCCCn1[nH]c2cc(Cl)ccc2c1=O | 98 | 69 | 75 |  |  |  |
| CC(=O)CCn1[nH]c2ccccc2c1=O | 78 | 46 | 46 |  |  |  |
| CCCn1[nH]c2ccccc2c1=O | 92 | 77 | 68 |  |  |  |
| CC(=O)c1ccccc1Cn1[nH]c2ccccc2c1=O | 98 | 41 | 60 |  |  |  |
| O=c1c2ccccc2[nH]n1CCO | 97 | 63 | 83 |  |  |  |
| CCCCn1[nH]c2ccccc2c1=O | 92 | 44 | 46 |  |  |  |
| CC(=O)c1cccc(Cn2[nH]c3ccccc3c2=O)c1 | 86 | 56 | 70 |  |  |  |
| CCCCn1[nH]c2ccc(Cl)cc2c1=O | 76 | 83 | 74 |  |  |  |
| O=c1c2ccccc2[nH]n1CCCO | 96 | 72 | 83 |  |  |  |
| CCCCCn1[nH]c2ccccc2c1=O | 79 | 77 | 73 |  |  |  |
| CCOC(=O)n1[nH]c(=O)c2ccccc21 | 78 | 61 | 60 |  |  |  |
| CCOC(=O)n1c2ccccc2c(=O)n1CCC(=O)O | 88 | 70 | 77 |  |  |  |
| CCOC(=O)C(C)(C)Oc1ccc(Cl)cc1 [CLOFIBRATE] |  |  |  | 87 | 75 | 92 |
| O=C1NC(=O)c2ccccc21 [PHTHALIMIDE] | 63 | 44 | 57 |  |  |  |

Source: ChEMBL document CHEMBL1122669, “Hypolipidemic activity of phthalimide derivatives. 7. Structure-activity studies of indazolone analogues” (1984)
